Entries after “also recorded” stand apart in the source; their conditions may differ.
Assays:
DAPK3 = DAPK3 (Homo sapiens, UniProt O43293); experiment: ProQinase radiometric kinase panel; settings: mean of 2 exp.
JAK3 = JAK3 (Homo sapiens, UniProt P52333); experiment: ProQinase radiometric kinase panel; settings: mean of 2 exp.
PKC-nu = PKC-nu (Homo sapiens, UniProt O94806); experiment: ProQinase radiometric kinase panel; settings: mean of 2 exp.
RPS6KA3 = RPS6KA3 (Homo sapiens, UniProt P51812); experiment: ProQinase radiometric kinase panel; settings: mean of 2 exp.
CDK2/CycA2 = CDK2/CycA2 (Homo sapiens, UniProt P24941); experiment: ProQinase radiometric kinase panel; settings: mean of 2 exp.
GRK2 = GRK2 (Homo sapiens, UniProt P25098); experiment: ProQinase radiometric kinase panel; settings: mean of 2 exp.
PASK = PASK (Homo sapiens, UniProt Q96RG2); experiment: ProQinase radiometric kinase panel; settings: mean of 2 exp.
p38-delta = p38-delta (Homo sapiens, UniProt O15264); experiment: ProQinase radiometric kinase panel; settings: mean of 2 exp.
MAP3K11 = MAP3K11 (Homo sapiens, UniProt Q16584); experiment: ProQinase radiometric kinase panel; settings: mean of 2 exp.
PKC-gamma = PKC-gamma (Homo sapiens, UniProt P05129); experiment: ProQinase radiometric kinase panel; settings: mean of 2 exp.
MST2 = MST2 (Homo sapiens, UniProt Q13188); experiment: ProQinase radiometric kinase panel; settings: mean of 2 exp.
DAPK2 = DAPK2 (Homo sapiens, UniProt Q9UIK4); experiment: ProQinase radiometric kinase panel; settings: mean of 2 exp.
FER = FER (Homo sapiens, UniProt P16591); experiment: ProQinase radiometric kinase panel; settings: mean of 2 exp.
CDK4/CycD3 = CDK4/CycD3 (Homo sapiens, UniProt P11802); experiment: ProQinase radiometric kinase panel; settings: mean of 2 exp.
AMPK-alph1 = AMPK-alph1 (Homo sapiens, UniProt Q13131); experiment: ProQinase radiometric kinase panel; settings: mean of 2 exp.
PKC-iota = PKC-iota (Homo sapiens, UniProt P41743); experiment: ProQinase radiometric kinase panel; settings: mean of 2 exp.
EGF-R = EGF-R (Homo sapiens, UniProt P00533); experiment: ProQinase radiometric kinase panel; settings: mean of 2 exp.
FGF-R1 = FGF-R1 (Homo sapiens, UniProt P11362); experiment: ProQinase radiometric kinase panel; settings: mean of 2 exp.
MAO-A = target: T1, MAO-A (Homo sapiens, UniProt P21397); experiment: MAO-GLO assay; type: biochemical
T1 sequence (P21397 1-527): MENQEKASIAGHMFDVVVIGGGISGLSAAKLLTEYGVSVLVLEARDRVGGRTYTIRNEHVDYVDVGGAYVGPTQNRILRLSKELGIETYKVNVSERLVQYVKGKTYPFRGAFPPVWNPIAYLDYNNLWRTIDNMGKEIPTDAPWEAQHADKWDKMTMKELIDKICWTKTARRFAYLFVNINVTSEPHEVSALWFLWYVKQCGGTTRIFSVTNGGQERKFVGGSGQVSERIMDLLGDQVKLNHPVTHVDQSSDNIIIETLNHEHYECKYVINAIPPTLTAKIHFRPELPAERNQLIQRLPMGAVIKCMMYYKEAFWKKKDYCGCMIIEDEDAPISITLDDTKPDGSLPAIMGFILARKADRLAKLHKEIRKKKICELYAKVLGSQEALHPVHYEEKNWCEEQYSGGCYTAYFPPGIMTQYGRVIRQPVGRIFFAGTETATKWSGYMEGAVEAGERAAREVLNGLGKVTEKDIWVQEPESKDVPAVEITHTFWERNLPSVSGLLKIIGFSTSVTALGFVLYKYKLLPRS
Description: 2 were calculated. Kinase activity of DYRK1A was determined by radiometric assays using the peptide DYRKtide as a substrate. MAO-A activity was measured with the help of the MAO-GLO assay kit (Promega). IC50 values were calculated by curve fitting with the help of […]
the […] PRISM 5.0 program after automatic outlier elimination. The graphs present

EPHB1 = EPHB1 (Homo sapiens, UniProt P54762); experiment: ProQinase radiometric kinase panel; settings: mean of 2 exp.
CDK6/CycD1 = CDK6/CycD1 (Homo sapiens, UniProt Q00534); experiment: ProQinase radiometric kinase panel; settings: mean of 2 exp.
MAP3K10 = MAP3K10 (Homo sapiens, UniProt Q02779); experiment: ProQinase radiometric kinase panel; settings: mean of 2 exp.
NLK = NLK (Homo sapiens, UniProt Q9UBE8); experiment: ProQinase radiometric kinase panel; settings: mean of 2 exp.
ACV-R1B = ACV-R1B (Homo sapiens, UniProt P36896); experiment: ProQinase radiometric kinase panel; settings: mean of 2 exp.
SAK = SAK (Homo sapiens, UniProt O00444); experiment: ProQinase radiometric kinase panel; settings: mean of 2 exp.
Aurora-B = Aurora-B (Homo sapiens, UniProt Q96GD4); experiment: ProQinase radiometric kinase panel; settings: mean of 2 exp.
EIF2AK3 = EIF2AK3 (Homo sapiens, UniProt Q9NZJ5); experiment: ProQinase radiometric kinase panel; settings: mean of 2 exp.
FLT3 = FLT3 (Homo sapiens, UniProt P36888); experiment: ProQinase radiometric kinase panel; settings: mean of 2 exp.
WNK3 = WNK3 (Homo sapiens, UniProt Q9BYP7); experiment: ProQinase radiometric kinase panel; settings: mean of 2 exp.
B-RAF = B-RAF (Homo sapiens, UniProt P15056); experiment: ProQinase radiometric kinase panel; settings: mean of 2 exp.
MAP4K4 = MAP4K4 (Homo sapiens, UniProt O95819); experiment: ProQinase radiometric kinase panel; settings: mean of 2 exp.

Chain of NLK (Q9UBE8 whole entry): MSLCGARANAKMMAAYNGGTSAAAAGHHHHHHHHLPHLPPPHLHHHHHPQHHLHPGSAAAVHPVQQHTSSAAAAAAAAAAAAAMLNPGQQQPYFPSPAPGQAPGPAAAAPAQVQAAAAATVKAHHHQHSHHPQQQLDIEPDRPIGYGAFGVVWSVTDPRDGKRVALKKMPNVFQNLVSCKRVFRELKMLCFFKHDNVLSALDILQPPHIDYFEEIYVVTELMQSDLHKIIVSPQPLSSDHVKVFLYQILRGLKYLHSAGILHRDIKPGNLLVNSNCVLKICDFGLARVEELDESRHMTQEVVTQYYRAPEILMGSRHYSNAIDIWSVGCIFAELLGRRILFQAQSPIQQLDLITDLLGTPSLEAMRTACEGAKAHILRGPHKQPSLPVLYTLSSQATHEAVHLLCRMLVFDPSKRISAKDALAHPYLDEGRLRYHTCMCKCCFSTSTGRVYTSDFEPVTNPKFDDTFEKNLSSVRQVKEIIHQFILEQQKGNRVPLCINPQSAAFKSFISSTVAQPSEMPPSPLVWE
Chain of JAK3 (P52333 whole entry): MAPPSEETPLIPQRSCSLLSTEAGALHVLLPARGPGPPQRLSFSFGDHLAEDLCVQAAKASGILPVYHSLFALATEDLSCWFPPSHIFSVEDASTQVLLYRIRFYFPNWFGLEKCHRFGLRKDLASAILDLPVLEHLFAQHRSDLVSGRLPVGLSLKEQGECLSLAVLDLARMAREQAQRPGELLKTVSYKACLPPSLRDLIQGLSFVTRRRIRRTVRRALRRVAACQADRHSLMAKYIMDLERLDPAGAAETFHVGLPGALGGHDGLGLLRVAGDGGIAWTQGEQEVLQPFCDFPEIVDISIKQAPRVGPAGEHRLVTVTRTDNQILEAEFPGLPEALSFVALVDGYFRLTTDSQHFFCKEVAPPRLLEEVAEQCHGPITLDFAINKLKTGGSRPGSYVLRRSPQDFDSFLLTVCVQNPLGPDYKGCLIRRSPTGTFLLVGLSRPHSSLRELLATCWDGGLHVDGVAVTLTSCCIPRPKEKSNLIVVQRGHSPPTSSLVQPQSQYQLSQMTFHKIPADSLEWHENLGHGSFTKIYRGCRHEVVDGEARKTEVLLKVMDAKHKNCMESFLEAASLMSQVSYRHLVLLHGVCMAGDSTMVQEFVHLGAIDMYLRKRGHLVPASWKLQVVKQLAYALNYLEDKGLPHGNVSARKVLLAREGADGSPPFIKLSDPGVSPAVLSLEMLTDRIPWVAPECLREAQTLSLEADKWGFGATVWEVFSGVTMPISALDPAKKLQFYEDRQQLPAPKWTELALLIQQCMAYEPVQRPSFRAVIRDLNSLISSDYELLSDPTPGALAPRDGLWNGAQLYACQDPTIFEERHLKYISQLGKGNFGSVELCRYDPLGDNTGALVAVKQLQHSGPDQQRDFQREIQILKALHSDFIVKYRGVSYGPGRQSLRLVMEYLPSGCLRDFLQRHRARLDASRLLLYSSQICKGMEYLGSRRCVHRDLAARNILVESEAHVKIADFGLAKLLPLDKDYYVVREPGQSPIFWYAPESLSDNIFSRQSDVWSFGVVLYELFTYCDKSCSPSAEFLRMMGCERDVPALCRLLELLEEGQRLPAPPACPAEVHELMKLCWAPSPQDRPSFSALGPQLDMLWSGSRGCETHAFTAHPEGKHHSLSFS
Chain of PASK (Q96RG2 whole entry): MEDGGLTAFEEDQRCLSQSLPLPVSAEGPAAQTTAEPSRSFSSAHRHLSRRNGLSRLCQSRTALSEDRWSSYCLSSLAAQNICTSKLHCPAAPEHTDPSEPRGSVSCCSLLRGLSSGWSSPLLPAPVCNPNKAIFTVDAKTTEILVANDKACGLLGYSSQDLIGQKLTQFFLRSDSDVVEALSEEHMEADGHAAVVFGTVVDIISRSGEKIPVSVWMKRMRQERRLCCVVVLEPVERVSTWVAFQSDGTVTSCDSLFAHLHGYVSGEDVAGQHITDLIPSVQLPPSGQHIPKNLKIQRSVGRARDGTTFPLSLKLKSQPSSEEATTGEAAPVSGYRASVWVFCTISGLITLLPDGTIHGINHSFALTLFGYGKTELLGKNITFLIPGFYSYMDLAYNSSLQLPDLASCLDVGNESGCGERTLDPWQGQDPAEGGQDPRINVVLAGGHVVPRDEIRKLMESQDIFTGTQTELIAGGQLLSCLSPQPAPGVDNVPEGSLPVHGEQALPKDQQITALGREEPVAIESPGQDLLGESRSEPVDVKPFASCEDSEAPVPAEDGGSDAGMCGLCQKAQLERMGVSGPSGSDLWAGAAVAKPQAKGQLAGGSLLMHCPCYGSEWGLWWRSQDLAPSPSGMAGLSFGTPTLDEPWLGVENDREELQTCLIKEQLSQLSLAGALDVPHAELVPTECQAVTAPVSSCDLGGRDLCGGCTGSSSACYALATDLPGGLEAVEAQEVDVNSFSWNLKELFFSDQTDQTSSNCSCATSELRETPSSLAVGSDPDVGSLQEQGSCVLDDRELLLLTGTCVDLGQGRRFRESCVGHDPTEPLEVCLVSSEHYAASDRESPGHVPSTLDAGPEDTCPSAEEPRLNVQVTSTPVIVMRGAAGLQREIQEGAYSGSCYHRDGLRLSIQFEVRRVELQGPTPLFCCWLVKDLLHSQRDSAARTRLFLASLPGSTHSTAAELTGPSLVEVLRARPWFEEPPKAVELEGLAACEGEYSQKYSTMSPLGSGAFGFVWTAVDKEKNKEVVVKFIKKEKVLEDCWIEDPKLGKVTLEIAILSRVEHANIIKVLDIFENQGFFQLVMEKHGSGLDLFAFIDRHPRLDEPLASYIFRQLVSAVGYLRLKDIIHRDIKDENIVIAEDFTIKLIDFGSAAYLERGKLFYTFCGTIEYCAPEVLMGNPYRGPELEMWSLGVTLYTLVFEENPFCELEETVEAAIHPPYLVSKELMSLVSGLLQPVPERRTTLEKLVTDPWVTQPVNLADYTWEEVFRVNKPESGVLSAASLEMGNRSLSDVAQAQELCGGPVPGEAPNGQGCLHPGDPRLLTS
Chain of RPS6KA3 (P51812 whole entry): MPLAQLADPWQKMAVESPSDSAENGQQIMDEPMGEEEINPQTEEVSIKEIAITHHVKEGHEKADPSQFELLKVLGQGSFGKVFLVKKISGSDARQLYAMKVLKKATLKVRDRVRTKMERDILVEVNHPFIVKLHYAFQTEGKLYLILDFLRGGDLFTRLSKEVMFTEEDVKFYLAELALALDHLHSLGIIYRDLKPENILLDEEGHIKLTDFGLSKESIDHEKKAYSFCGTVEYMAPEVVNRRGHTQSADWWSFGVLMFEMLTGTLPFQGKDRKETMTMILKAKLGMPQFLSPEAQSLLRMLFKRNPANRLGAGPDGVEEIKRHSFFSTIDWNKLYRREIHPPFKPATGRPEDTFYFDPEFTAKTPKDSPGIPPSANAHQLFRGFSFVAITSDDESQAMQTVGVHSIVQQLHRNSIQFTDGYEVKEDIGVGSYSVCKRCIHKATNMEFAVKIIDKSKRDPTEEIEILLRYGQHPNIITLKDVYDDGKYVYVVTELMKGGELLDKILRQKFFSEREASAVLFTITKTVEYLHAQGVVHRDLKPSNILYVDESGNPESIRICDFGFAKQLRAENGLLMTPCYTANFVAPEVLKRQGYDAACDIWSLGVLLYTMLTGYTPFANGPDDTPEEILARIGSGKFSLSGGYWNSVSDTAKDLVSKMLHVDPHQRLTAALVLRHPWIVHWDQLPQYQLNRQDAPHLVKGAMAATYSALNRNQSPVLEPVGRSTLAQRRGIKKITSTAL
Chain of GRK2 (P25098 whole entry): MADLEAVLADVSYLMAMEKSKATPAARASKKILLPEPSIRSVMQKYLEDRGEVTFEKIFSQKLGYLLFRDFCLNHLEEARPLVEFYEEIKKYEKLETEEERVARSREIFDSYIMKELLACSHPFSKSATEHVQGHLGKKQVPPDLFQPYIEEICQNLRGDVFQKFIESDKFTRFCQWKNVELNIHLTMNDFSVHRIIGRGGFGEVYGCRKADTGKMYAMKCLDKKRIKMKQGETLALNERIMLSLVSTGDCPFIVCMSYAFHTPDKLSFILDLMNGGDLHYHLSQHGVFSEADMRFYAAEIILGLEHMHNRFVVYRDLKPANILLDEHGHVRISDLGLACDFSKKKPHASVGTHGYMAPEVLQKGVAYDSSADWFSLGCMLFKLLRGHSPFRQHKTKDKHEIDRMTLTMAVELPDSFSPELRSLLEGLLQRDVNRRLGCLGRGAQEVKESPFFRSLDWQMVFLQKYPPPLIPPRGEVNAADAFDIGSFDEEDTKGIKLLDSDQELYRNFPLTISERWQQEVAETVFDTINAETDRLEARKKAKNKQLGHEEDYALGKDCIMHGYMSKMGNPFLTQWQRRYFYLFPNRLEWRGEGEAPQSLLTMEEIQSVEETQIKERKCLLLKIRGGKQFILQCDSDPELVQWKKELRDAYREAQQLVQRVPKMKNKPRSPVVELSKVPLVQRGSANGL
Chain of Aurora-B (Q96GD4 whole entry): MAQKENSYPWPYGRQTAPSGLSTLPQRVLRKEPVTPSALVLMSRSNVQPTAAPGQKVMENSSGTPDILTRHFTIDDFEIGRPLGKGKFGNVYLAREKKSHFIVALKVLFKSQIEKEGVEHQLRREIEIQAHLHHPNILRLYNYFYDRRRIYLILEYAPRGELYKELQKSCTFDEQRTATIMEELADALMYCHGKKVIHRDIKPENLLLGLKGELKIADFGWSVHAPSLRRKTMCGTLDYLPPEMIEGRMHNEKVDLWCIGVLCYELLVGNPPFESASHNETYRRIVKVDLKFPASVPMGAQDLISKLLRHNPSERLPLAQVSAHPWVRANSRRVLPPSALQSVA

Q: With `COc1ccc2c3ccnc(Cl)c3n(CC#N)c2c1` [AnnH75] as the compound, how does the “residual activity at 1 µM, Mean” value (DAPK3) read?
A: 98 % of control

Q: What about the “residual activity at 1 µM, Mean” value (JAK3) of the same compound?
A: 101 % of control

Q: And the “residual activity at 1 µM, Mean” value (PKC-nu)?
A: 87 % of control

Q: And the “residual activity at 1 µM, Mean” value (RPS6KA3)?
A: 101 % of control

Q: And the “residual activity at 1 µM, Mean” value (CDK2/CycA2)?
A: 88 % of control

Q: What about the “residual activity at 1 µM, Mean” value (GRK2) of the same compound?
A: 92 % of control

Q: And the “residual activity at 1 µM, Mean” value (PASK)?
A: 74 % of control

Q: And the “residual activity at 1 µM, Mean” value (p38-delta)?
A: 89 % of control

Q: What about the “residual activity at 1 µM, Mean” value (MAP3K11) of the same compound?
A: 98 % of control

Q: What about the “residual activity at 1 µM, Mean” value (PKC-gamma) of the same compound?
A: 108 % of control

Q: And the “residual activity at 1 µM, Mean” value (MST2)?
A: 101 % of control

Q: What about the “residual activity at 1 µM, Mean” value (DAPK2) of the same compound?
A: 97 % of control

Q: What about the “residual activity at 1 µM, Mean” value (FER) of the same compound?
A: 93 % of control

Q: And the “residual activity at 1 µM, Mean” value (CDK4/CycD3)?
A: 89 % of control

Q: And the “residual activity at 1 µM, Mean” value (AMPK-alph1)?
A: 92 % of control

Q: And the “residual activity at 1 µM, Mean” value (PKC-iota)?
A: 102 % of control

Q: What about the “residual activity at 1 µM, Mean” value (EGF-R) of the same compound?
A: 104 % of control

Q: What about the “residual activity at 1 µM, Mean” value (FGF-R1) of the same compound?
A: 97 % of control

Q: And the “effect on MAO-A” value (MAO-A)?
A: complete elimination of MAO-A inhibition; also recorded: no residual effect on MAO-A

Q: What about the IC50 (MAO-A; n = 3–5 concentration response curves, read-out: Inhibition of MAO-A IC50) of the same compound?
A: > 10 µM

Q: What about the “residual activity at 1 µM, Mean” value (EPHB1) of the same compound?
A: 89 % of control

Q: And the “residual activity at 1 µM, Mean” value (CDK6/CycD1)?
A: 95 % of control

Q: And the “residual activity at 1 µM, Mean” value (MAP3K10)?
A: 91 % of control

Q: What about the “residual activity at 1 µM, Mean” value (NLK) of the same compound?
A: 92 % of control

Q: What about the “residual activity at 1 µM, Mean” value (ACV-R1B) of the same compound?
A: 97 % of control

Q: What about the “residual activity at 1 µM, Mean” value (SAK) of the same compound?
A: 112 % of control

Q: What about the “residual activity at 1 µM, Mean” value (Aurora-B) of the same compound?
A: 104 % of control

Q: What about the “residual activity at 1 µM, Mean” value (EIF2AK3) of the same compound?
A: 99 % of control

Q: And the “residual activity at 1 µM, Mean” value (FLT3)?
A: 70 % of control

Q: What about the “residual activity at 1 µM, Mean” value (WNK3) of the same compound?
A: 94 % of control

Q: And the “residual activity at 1 µM, Mean” value (B-RAF)?
A: 105 % of control

Q: And the “residual activity at 1 µM, Mean” value (MAP4K4)?
A: 85 % of control
